Laboratory results published in patent publication US4324728A, “Compound nanaomycin A and derivatives thereof and a process for producing the same” (The Kitasato Institute, priority 1976, dated 1982).
Values after ≈ are worked out from the molar mass of the structure shown.

Key:
Mycoplasma gallinarum = assay: Minimal inhibitory concentration (PPLO agar); type: cell-based; conditions: Mycoplasmopsis gallinarum, 192 h, Eiken PPLO agar, pH 7.8, 8 days, 37° C.
Description: (§1) H Hokken PPLO agar (pH 7.8, 8 days, 37° C.)
(§2) MIC Minimal inhibitory concentration
(§3) E Eiken PPLO agar (pH 7.8, 8 days, 37° C.)

Mycoplasma iners = assay: Minimal inhibitory concentration (PPLO agar); type: cell-based; conditions: Mycoplasmopsis iners, 192 h; Eiken PPLO agar, pH 7.8, 8 days, 37° C.
Description: as §1, §2, §3

[1] = tested on: mycoplasma, Gram-positive bacteria and tricophyton; assay: Antimicrobial activity (in words); type: cell-based
Candida albicans = assay: Minimal inhibitory concentration (agar); type: cell-based; conditions: Candida albicans, 96 h, pH 6.4, potato agar, pH 6.4, 4 days, 27° C.; read-out: MIC
Description: (§4) P potato agar (pH 6.4, 4 days, 27° C.)
as §2
(§5) Minimal inhibitory concentration was assayed by agar dilution method
(§6) (potato agar, pH 6.4, 27° C., 4 days).

[2] = tested on: parasite of the genus Tricophyton; assay: Therapeutic effect on infectious diseases in guinea pigs and cattle; type: in vivo
Description: When dermatomycosis of cattle caused by mass infection of Trichophyton verrucosum is treated with nanaomycin A, nanaomycin A is dissolved or suspended in a suitable carrier, for example, olive oil, and is coated on the affected part directly with or without removal of the scales. […] The results obtained by once-coating of nanaomycin A and by twice-coating (the second coating is carried out a week after the first coating) are shown in Tables 2 and 3, respectively.

Mycoplasma pneumoniae = assay: Minimal inhibitory concentration (PPLO agar); type: cell-based; conditions: 192 h, Eiken PPLO agar, pH 7.8, 8 days, 37° C.
Escherichia coli NIHJ = assay: Minimal inhibitory concentration (agar); type: cell-based; conditions: 48 h, nutrient agar, pH 7.0, 2 days, 37° C.
[3] = tested on: Mycobacterium smegmatis ATCC 607; assay: Minimal inhibitory concentration (agar); type: cell-based; conditions: Mycolicibacterium smegmatis, ATCC607, 48 h; nutrient agar, pH 7.0, 2 days, 37° C.
fungi = assay: Antifungal activity (in words); type: cell-based
Gram-positive bacteria = assay: Antibacterial activity (in words); type: cell-based
Salmonella typhimurium = assay: Minimal inhibitory concentration (agar); type: cell-based; conditions: Salmonella enterica, 48 h, nutrient agar, pH 7.0, 2 days, 37° C.
Sarcina lutea PCI 1001 = assay: Minimal inhibitory concentration (agar); type: cell-based; conditions: Micrococcus luteus, PCI1001, 48 h, pH 7, nutrient agar, pH 7.0, 2 days, 37° C.; read-out: MIC
Description: (§7) Medium N nutrient agar (pH 7.0, 2 days, 37° C.)
as §2
(§8) N nutrient agar (pH 7.0, 2 days, 37° C.)

Shigella flexneri = assay: Minimal inhibitory concentration (agar); type: cell-based; conditions: 48 h, nutrient agar, pH 7.0, 2 days, 37° C.
Description: as §7, §2, §8

[4] = tested on: Escherichia coli NIHJ (JC-2); assay: Minimal inhibitory concentration (agar); type: cell-based; conditions: 48 h, pH 7, nutrient agar, pH 7.0, 2 days, 37° C.
Description: as §7, §2, §8

[5] = tested on: Bacillus subtilis PCI 219; assay: Minimal inhibitory concentration (agar); type: cell-based; conditions: Bacillus subtilis, PCI219, 48 h, pH 7, nutrient agar, pH 7.0, 2 days, 37° C.; read-out: MIC
Description: as §7, §2, §8

[6] = tested on: Staphylococcus aureus FDA 209P (JC-1); assay: Minimal inhibitory concentration (agar); type: cell-based; conditions: FDA209P, 48 h, nutrient agar, pH 7.0, 2 days, 37° C.
Description: as §7, §2, §8

Pseudomonas aeruginosa = assay: Minimal inhibitory concentration (agar); type: cell-based; conditions: 48 h, nutrient agar, pH 7.0, 2 days, 37° C.
Description: as §7, §2, §8

Sclerotinia cinerea = assay: Minimal inhibitory concentration (agar); type: cell-based; conditions: 96 h, potato agar, pH 6.4, 4 days, 27° C.
Description: | P potato agar (pH 6.4, 4 days, 27° C.)

Solubility = type: physicochemical
Aspergillus niger = assay: Minimal inhibitory concentration (agar); type: cell-based; conditions: Aspergillus niger, 96 h; potato agar, pH 6.4, 4 days, 27° C.; read-out: MIC
Description: as §5, §6, §4

Saccharomyces sake = assay: Minimal inhibitory concentration (agar); type: cell-based; conditions: Saccharomyces, 96 h; potato agar, pH 6.4, 4 days, 27° C.; read-out: MIC
[7] = tested on: Staphylococcus aureus FDA 209P; assay: Minimal inhibitory concentration (agar); type: cell-based; conditions: FDA209P, 48 h, nutrient agar, pH 7.0, 2 days, 37° C.
[8] = tested on: Klebsiella pneumoniae PCI 602; assay: Minimal inhibitory concentration (agar); type: cell-based; conditions: PCI602, 48 h, nutrient agar, pH 7.0, 2 days, 37° C.
[9] = tested on: Mycoplasma gallisepticum KP-13; assay: Minimal inhibitory concentration (PPLO agar); type: cell-based; conditions: Mycoplasmoides gallisepticum, KP13, 192 h; Eiken PPLO agar, pH 7.8, 8 days, 37° C.; read-out: MIC
Description: as §1, §3, §2

[10] = tested on: Mycoplasma gallisepticum 333P (Spiramycin resistant); assay: Minimal inhibitory concentration (PPLO agar); type: cell-based; conditions: Mycoplasmoides gallisepticum, 192 h, pH 7.8
Description: as §1, §3, §2

[11] = tested on: Mycoplasma gallisepticum S-6; assay: Minimal inhibitory concentration (PPLO agar); type: cell-based; conditions: Mycoplasmoides gallisepticum, S6, 192 h; Eiken PPLO agar, pH 7.8, 8 days, 37° C.; read-out: MIC
Description: as §1, §3, §2

mycoplasmas = assay: Antimycoplasma activity (in words); type: cell-based
[12] = tested on: Trichophyton interdigitale; assay: Minimal inhibitory concentration (agar); type: cell-based; conditions: Trichophyton interdigitale, 96 h; potato agar, pH 6.4, 4 days, 27° C.; read-out: MIC

With `CC1OC(CC(N)=O)CC2=C1C(=O)c1c(O)cccc1C2=O` (stereo not drawn) [Nanaomycin C, nanaomycin C] the MIC (Mycoplasma gallinarum) was 12.5 µg/mL (≈ 41.5 µM), the MIC (Mycoplasma iners) was 50 µg/mL (≈ 166 µM) and the antimicrobial activity [1] was “inhibits mainly Gram-positive bacteria and mycoplasmas”. For the same compound, the MIC (Candida albicans) was > 100 µg/mL, the “therapeutic effect on Trichophyton infectious diseases” value [2] was “poor therapeutic effect” and the MIC (Mycoplasma pneumoniae) was 6.3 µg/mL (≈ 20.9 µM). For the same compound, the MIC (Escherichia coli NIHJ) was 100 µg/mL (≈ 332 µM), the MIC [3] was 50 µg/mL (≈ 166 µM) and the activity against fungi (fungi) was “a weaker activity against fungi and mycoplasmas than nanaomycin A”. For the same compound, the “activity against Gram-positive bacteria” value (Gram-positive bacteria) was “as strong activity against Gram-positive bacteria as nanaomycin A”, the MIC (Salmonella typhimurium) was > 100 µg/mL and the MIC (Sarcina lutea PCI 1001) was 25 µg/mL (≈ 83 µM). For the same compound, the MIC (Shigella flexneri) was > 100 µg/mL, the MIC [4] was > 100 µg/mL and the MIC [5] was 6.3 µg/mL (≈ 20.9 µM). The MIC [6] was 3.1 µg/mL (≈ 10.3 µM), the MIC (Pseudomonas aeruginosa) was > 100 µg/mL and the MIC (Sclerotinia cinerea) was 100 µg/mL (≈ 332 µM). The “Solubility in methanol, ethanol, ethylacetate, chloroform and acetone” value (Solubility; methanol, ethanol, ethylacetate, chloroform, acetone) was “Soluble”, the “Solubility in n-hexane and petroleum ether” value (Solubility; n-hexane, petroleum ether) was “Insoluble” and the Solubility in water (Solubility; water) was “Insoluble”. For the same compound, the MIC (Aspergillus niger) was > 100 µg/mL, the MIC (Saccharomyces sake) was > 100 µg/mL and the MIC [7] was 6.3 µg/mL (≈ 20.9 µM). The MIC [8] was > 100 µg/mL, the MIC [9] was 12.5 µg/mL (≈ 41.5 µM) and the MIC [10] was 3.1 µg/mL (≈ 10.3 µM). The MIC [11] was 6.3 µg/mL (≈ 20.9 µM), the “activity against mycoplasma(s)” value (mycoplasmas) was “a weaker activity against fungi and mycoplasmas than nanaomycin A” and the MIC [12] was 100 µg/mL (≈ 332 µM).
